Active and inactive are the calls of the source. No cut-off for these calls is given here.
What was measured:
SK-OV-3 [1] = assay: cells; type: functional; conditions: Homo sapiens, time 72 hrs
[2] = Antiproliferative activity against human HK-2 cells incubated for 72 hrs by MTT assay
B16-F10 [3] = assay: Inhibition of cell migration in mouse B16-F10 cells at 5 uM by transwell assay relative to control; type: functional
HCT-116 [4] = assay: Antiproliferative activity against human HCT-116 cells incubated for 72 hrs by MTT assay; type: functional, cell-based; conditions: HCT-116, 72 h
[5] = target: T1, Histone deacetylase 3 (Mus musculus) (UniProt O88895); assay: Inhibition of HDAC3 in mouse B16-F10 cells assessed as increase in Ac-H3K56 level at 2.5 to 10 uM incubated for 24 hrs by Western blot analysis; type: cell-based; conditions: dose 2.5-10 µM
T1 sequence (whole entry): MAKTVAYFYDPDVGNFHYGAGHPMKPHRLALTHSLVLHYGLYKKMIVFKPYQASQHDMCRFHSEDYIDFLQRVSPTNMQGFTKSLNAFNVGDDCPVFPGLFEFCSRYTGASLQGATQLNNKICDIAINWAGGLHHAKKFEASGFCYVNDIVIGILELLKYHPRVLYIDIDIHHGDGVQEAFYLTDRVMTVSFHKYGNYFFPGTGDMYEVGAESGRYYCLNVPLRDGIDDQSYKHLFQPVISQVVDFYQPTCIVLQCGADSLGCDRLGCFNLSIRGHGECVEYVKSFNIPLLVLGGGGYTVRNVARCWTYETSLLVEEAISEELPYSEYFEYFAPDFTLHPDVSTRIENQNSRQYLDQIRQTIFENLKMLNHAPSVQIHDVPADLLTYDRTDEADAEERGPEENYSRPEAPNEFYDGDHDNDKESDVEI

B16-F10 [6] = assay: Induction of cell cycle arrest in mouse B16-F10 cells assessed as cell accumulation incubated for 24 hrs by PI staining based flow cytometry; type: functional; conditions: dose 2.5-10 µM
Histone deacetylase 8 = target: T2, Histone deacetylase 8 (Homo sapiens, UniProt Q9BY41); assay: Inhibition of HDAC8 (unknown origin)
T2 sequence (Q9BY41 whole entry): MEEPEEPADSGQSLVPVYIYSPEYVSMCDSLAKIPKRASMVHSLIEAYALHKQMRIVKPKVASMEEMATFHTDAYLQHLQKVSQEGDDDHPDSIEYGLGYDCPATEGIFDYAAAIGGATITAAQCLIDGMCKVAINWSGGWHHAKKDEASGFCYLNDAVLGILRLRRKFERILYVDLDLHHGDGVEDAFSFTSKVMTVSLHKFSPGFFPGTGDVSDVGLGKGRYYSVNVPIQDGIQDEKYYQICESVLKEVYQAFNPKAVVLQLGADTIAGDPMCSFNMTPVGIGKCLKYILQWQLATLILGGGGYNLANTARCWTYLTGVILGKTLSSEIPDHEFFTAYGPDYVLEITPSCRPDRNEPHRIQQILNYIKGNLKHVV

B16-F10 [7] = assay: Induction of apoptosis in mouse B16-F10 cells assessed as late-stage apoptosis at 10 uM incubated for 48 hrs by Annexin V-FITC/PI staining based flow cytometry relative to control; type: functional
[8] = target: T1, Histone deacetylase 3 (Mus musculus); assay: Inhibition of HDAC3 in mouse B16-F10 cells assessed as reduction in PD-L1 level at 2.5 uM incubated for 24 hrs by immunofluorescence based analysis; type: cell-based
B16-F10 [9] = assay: Induction of antitumor immunity in mouse B16-F10 cells assessed as increase in IFN-gamma level incubated for 24 hrs by Western blot analysis; type: functional, cell-based; conditions: dose 2.5-10 µM
4T1 [10] = assay: Antiproliferative activity against mouse 4T1 cells incubated for 72 hrs by MTT assay; type: functional, cell-based; conditions: 4T1, 72 h
Histone deacetylase 3 = Histone deacetylase 3 (Homo sapiens, UniProt O15379); assay: Inhibition of HDAC3 (unknown origin)
B16-F10 [11] = assay: Anti-migratory activity in mouse B16-F10 cells at 1.25 to 5 uM measured after 36 hrs by wound healing assay relative to control; type: functional; conditions: dose 1.25-5 µM
B16-F10 [12] = assay: Upregulation of Ac-alpha-tubulin level in mouse B16-F10 cells at 2.5 to 10 uM incubated for 24 hrs by Western blot analysis; type: functional, cell-based; conditions: dose 2.5-10 µM
B16-F10 [13] = assay: cells; type: functional; conditions: Mus musculus, time 72 hrs
4T1 [14] = assay: cells; type: functional; conditions: Mus musculus, time 72 hrs
B16-F10 [15] = assay: Induction of apoptosis in mouse B16-F10 cells assessed as late-stage apoptosis at 2.5 uM incubated for 48 hrs by Annexin V-FITC/PI staining based flow cytometry relative to control; type: functional
B16-F10 [16] = assay: Induction of apoptosis in mouse B16-F10 cells assessed as late-stage apoptosis at 5 uM incubated for 48 hrs by Annexin V-FITC/PI staining based flow cytometry relative to control; type: functional
B16-F10 [17] = assay: Induction of apoptosis in mouse B16-F10 cells incubated for 48 hrs by Annexin V-FITC/PI staining based flow cytometry; type: functional, cell-based; conditions: dose 2.5-10 µM
K562 [18] = assay: Antiproliferative activity against human K562 cells incubated for 72 hrs by CCK8 assay; type: functional, cell-based; conditions: K562, 72 h
[19] = target: T1, Histone deacetylase 3 (Mus musculus); assay: Inhibition of HDAC3 in mouse B16-F10 cells assessed as increase in Ac-H3 level at 2.5 uM incubated for 24 hrs by immunofluorescence based analysis; type: cell-based
B16-F10 [20] = assay: Inhibition of cell invasion in mouse B16-F10 cells at 5 uM by transwell assay relative to control; type: functional
SK-OV-3 [21] = assay: Antiproliferative activity against human SK-OV-3 cells incubated for 72 hrs by MTT assay; type: functional, cell-based; conditions: SK-OV-3, 72 h
B16-F10 [22] = assay: Antiproliferative activity against mouse B16-F10 cells incubated for 72 hrs by MTT assay; type: functional, cell-based; conditions: B16-F10, 72 h
Histone deacetylase 1 = Histone deacetylase 1 (Homo sapiens, UniProt Q13547); assay: Inhibition of HDAC1 (unknown origin)
K562 [23] = assay: cells; type: functional; conditions: Homo sapiens, time 72 hrs
[24] = target: T1, Histone deacetylase 3 (Mus musculus); assay: Inhibition of HDAC3 in mouse B16-F10 cells assessed as increase in Ac-H3 level incubated for 24 hrs by Western blot analysis; type: cell-based; conditions: dose 2.5-10 µM
B16-F10 [25] = assay: Induction of antitumor immunity in mouse B16-F10 cells assessed as reduction in PD-L1 level incubated for 24 hrs by Western blot analysis; type: functional, cell-based; conditions: dose 2.5-10 µM
HCT-116 [26] = assay: cells; type: functional; conditions: Homo sapiens, time 72 hrs

Histone deacetylase 3, sequence (O15379 whole entry): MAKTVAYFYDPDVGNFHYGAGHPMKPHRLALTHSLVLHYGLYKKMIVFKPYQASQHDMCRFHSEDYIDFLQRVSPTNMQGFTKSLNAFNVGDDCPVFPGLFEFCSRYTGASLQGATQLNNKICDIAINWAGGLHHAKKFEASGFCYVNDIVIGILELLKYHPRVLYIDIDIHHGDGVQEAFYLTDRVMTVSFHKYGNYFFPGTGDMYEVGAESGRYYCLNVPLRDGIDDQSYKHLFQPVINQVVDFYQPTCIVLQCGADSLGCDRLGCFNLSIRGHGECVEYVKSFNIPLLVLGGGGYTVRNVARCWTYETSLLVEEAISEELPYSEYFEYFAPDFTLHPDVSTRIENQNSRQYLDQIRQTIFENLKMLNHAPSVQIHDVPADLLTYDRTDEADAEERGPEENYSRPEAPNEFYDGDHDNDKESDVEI
Histone deacetylase 1, sequence (Q13547 whole entry): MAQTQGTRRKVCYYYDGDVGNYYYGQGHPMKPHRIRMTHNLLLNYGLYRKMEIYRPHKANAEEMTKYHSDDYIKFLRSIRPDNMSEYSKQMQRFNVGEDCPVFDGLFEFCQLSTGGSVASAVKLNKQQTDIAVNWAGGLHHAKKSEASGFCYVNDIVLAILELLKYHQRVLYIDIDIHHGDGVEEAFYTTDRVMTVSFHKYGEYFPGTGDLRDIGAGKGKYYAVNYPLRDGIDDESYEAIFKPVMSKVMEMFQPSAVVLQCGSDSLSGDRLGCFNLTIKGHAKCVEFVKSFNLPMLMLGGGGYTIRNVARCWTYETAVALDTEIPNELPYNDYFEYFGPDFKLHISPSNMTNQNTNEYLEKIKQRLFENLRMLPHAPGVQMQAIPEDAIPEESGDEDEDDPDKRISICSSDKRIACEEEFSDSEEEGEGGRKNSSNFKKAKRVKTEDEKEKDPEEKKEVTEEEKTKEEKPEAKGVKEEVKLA

Compound	inhibition at 10 µM (SK-OV-3 [1]) [%]	IC50 at 72 h [2] [µM]	inhibition at 5 µM (B16-F10 [3]) [%]	IC50 (HCT-116 [4]) [µM]	inhibition [5]	Activity (B16-F10 [6])	IC50 (Histone deacetylase 8) [µM]	Activity (B16-F10 [7]) [%]	inhibition [8]	Activity (B16-F10 [9])	IC50 (4T1 [10]) [µM]	IC50 (Histone deacetylase 3) [µM]	Activity (B16-F10 [11]) [%]	Activity (B16-F10 [12])	inhibition at 10 µM (B16-F10 [13]) [%]	inhibition at 10 µM (4T1 [14]) [%]	Activity (B16-F10 [15]) [%]	Activity (B16-F10 [16]) [%]	Activity (B16-F10 [17])	IC50 (K562 [18]) [µM]	also measured
CCCNNC(=O)c1ccc(NC(=O)c2cnc(-c3ccc(OC(F)(F)F)cc3)s2)cc1	< 50	10.9	> 70	1.67	Active	Dose-dependent-effect	> 10	55.3	Active	Dose-dependent-effect; Activity Was Similar To Ms-275	7.57	0.4	>80	inactive	54.7	32.8	24	45.8	Dose-dependent-effect; Activity Similar To Vorinostat	4.57	inhibition [19]: Active; inhibition at 5 µM (B16-F10 [20]): > 70%; IC50 (SK-OV-3 [21]): 8.37 µM; IC50 (B16-F10 [22]): 6.07 µM; IC50 (Histone deacetylase 1): 1.57 µM; inhibition at 10 µM (K562 [23]): 52.6%; inhibition [24]: Dose-dependent-effect; Activity (B16-F10 [25]): Dose-dependent-effect; Activity Was Similar To Ms-275; inhibition at 10 µM (HCT-116 [26]): < 50%
CCCNNC(=O)CCCCCCNC(=O)c1cnc(-c2ccc(NC(=O)OC(C)(C)C)cc2)s1	< 50	11.5	> 70	3.31	Active	Dose-dependent-effect	> 10	51.5	Active	Dose-dependent-effect; Activity Was Similar To Ms-275	9.83	0.31	>80	inactive	60.7	33.1	20.6	43.5	Dose-dependent-effect; Activity Similar To Vorinostat	1.06	inhibition [19]: Active; inhibition at 5 µM (B16-F10 [20]): > 70%; IC50 (SK-OV-3 [21]): 5.76 µM; IC50 (B16-F10 [22]): 5.22 µM; IC50 (Histone deacetylase 1): 4.68 µM; inhibition at 10 µM (K562 [23]): 73.1%; inhibition [24]: Dose-dependent-effect; Activity (B16-F10 [25]): Dose-dependent-effect; Activity Was Similar To Ms-275; inhibition at 10 µM (HCT-116 [26]): 93.6%
